The fraction remaining is the share of the starting amount still present when the sample was taken.

Each structure is given as a SMILES string.

Holding throughout (assay type): cell-based
In data set [1] the test system is Pseudomonas aeruginosa (ATCC 27853). Briefly: Bactericidal efficacy, percent inactivation of P. aeruginosa. The note with it: pH 7.0, 22° C., DFW. Here is the method:
The halogenated imidazolidin-4-one derivatives prepared as in examples 3, 5, and 6 (Compounds 1, 5, and 3, respectively) were tested as bactericides against the microorganisms Staphylococcus aureus (ATCC25923) and Pseudomonas aeruginosa (ATCC 27853) in demand-free water (DFW) as a function of pH and temperature and in a synthetic-demand water (SDW) at pH 9.5 and 4° C. The demand-free and synthetic-demand waters were prepared as described in examples 7 and 12, respectively.
For the bactericidal efficacy tests 50 milliliters of buffered DFW or SDW were placed in a 125 milliliter flask which was then inoculated with the organism to be tested such that the final density of the organism was about 1×10^6 cfu/ml (colony forming units per milliliter). The inoculated solution was allowed to equilibrate at the test temperature by immersion in a thermostated water bath for 15 minutes with constant stirring. Then an appropriate amount of an aqueous solution containing the test halogenated imidazolidin-4-one compound maintained at the same test temperature was added to the inoculated solution to bring the total concentration of potential positive halogen (Cl^+ or Cl^+ /Br^+) in the mixture to a predetermined level (10 parts per million and 5 parts per million Cl^+ from compounds 1 and 3; the molar equivalent in Cl^+ /Br^+ from Compound 5). 1 milliliter aliquots were removed from the test mixture at various predetermined times, and the active halogen was quenched by 1 milliliter portions of sterile 0.02 Normal sodium thiosulfate. Serial dilutions were made into sterile saline, and three 25 microliter aliquots of each of the resulting dilutions were applied to the dried surface of a Petri dish containing tryptic soy and nutrient agars for plating S. aureus and P. aeruginosa, respectively. After 48 hours at 37° C. the three replicates for each dilution were counted and averaged. This average was used to compute the cfu/ml for that particular aliquot. Inactivation of the organism was considered to be at least 99.9999 percent when no colonies were detected in the thiosulfate quenched aliquots.

The nature of data set [2]: Prevention of the growth of algae in water by Compound 1. The note with it: algal aquarium, pH 6.8, start 6.14 mg per liter, read-out: Percent Total Potential Positive Chlorine Remaining. As for the experimental part: (§1) Two 10 gallon aquariums were each filled with 35 liters of Bristol's solution at pH 6.8 as described in example 16. To aquarium A was added 6.14 milligrams per liter total potential positive chlorine from 0.638 grams of 1,3-dichloro-2,2,5,5-tetramethylimidazolidin-4-one (Compound 1) as prepared in example 1. Aquarium B was used as a control with no halogenated compound added. Then 5 milliliters of an inoculum containing the algae Oscillatoria lutea, Anabaena cylindrica, and Chlorella pyrenoidosa with an absorbance of 0.14 at 750 nanometers was added to each aquarium. Constant aeration and illumination as described in example 16 were provided throughout the experiment. The laboratory temperature varied between 21° and 24° C. during the course of the experiment. Both aquariums were sampled periodically such that the absorption at 750 nanometers could be measured with a Milton Roy Spectronic 301 spectrophotometer. Aquarium A was also sampled for total potential positive chlorine using standard iodometric titration.

In data set [3] the test system is Oscillatoria lutea, Anabaena cylindrica, and Chlorella pyrenoidosa. The description is as above. As for the experimental part: as §1

For the compound `CC1(C)C(=O)N(Cl)C(C)(C)N1Br` [Compound 5, 1-bromo-3-chloro-2,2,5,5-tetramethylimidazolidin-4-one], the killing at 5 ppm in data set [1] (ATCC27853, 5 min, 5 minutes) is > 100%; in data set [1] (ATCC27853, 10 min, 10 minutes), > 100%.

For the compound `CC1(C)C(=O)N(Cl)C(C)(C)N1Cl` [Compound 1, 1,3-dichloro-2,2,5,5-tetramethylimidazolidin-4-one], the killing at 5 ppm was > 100% in data set [1] (ATCC27853, 5 min, 5 minutes) and > 100% in data set [1] (ATCC27853, 10 min, 10 minutes). The amount remaining at 24 h in data set [2] (day 1) was found to be 70.1%. In addition, the share remaining at 96 h in data set [2] (day 4) is 53.4%. For the same compound, the amount remaining at 120 h in data set [2] (day 5) worked out at 52.1%. In addition, the fraction remaining at 144 h in data set [2] (day 6) stood at 51%. The fraction remaining at 168 h in data set [2] (day 7) came out at 49.5%. In addition, the fraction remaining at 192 h in data set [2] (day 8) was 48.9%. Also, the amount remaining at 264 h in data set [2] (day 11) is 45.8%. The amount remaining at 288 h in data set [2] (day 12) stood at 45.6%. For the same compound, the share remaining at 312 h in data set [2] (day 13) was 44.8%. Besides, in data set [2] (day 14), the amount remaining at 336 h was 43.3%. Besides, the share remaining at 360 h in data set [2] (day 15) turned out to be 44.8%. Also, in data set [2] (day 18), the share remaining at 432 h stood at 41.9%. Besides, in data set [3] (6.14 mg per liter Cl+, 18 day experiment), the “green turbid tint (in words)” value is given as “did not develop such a color at any time during the 18 day experiment”. Moreover, the “A750 (Absorbance at 750 Nanometers)” value in data set [3] (6.14 mg per liter Cl+, day 7) is listed as 0.002; in data set [3] (6.14 mg per liter Cl+, day 11), 0.0; in data set [3] (6.14 mg per liter Cl+, day 12), 0.001; in data set [3] (6.14 mg per liter Cl+, day 13), 0.0; in data set [3] (6.14 mg per liter Cl+, day 14), 0.001; in data set [3] (6.14 mg per liter Cl+, day 15), 0.0. Besides, the “A750 (Absorbance at 750 Nanometers)” value in data set [3] (6.14 mg per liter Cl+, day 18) was determined as 0.0. The “prevention of the growth of algae (in words)” value in data set [3] (as long as a measurable amount of the compound is present) is on record as “effective at preventing the growth of algae in water”. In data set [3] (start 6.14 mg per liter, day 0), the “Percent Total Potential Positive Chlorine Remaining” value stood at 100.0%.

Source of the values: patent US5126057A, “Disinfecting with N,N'-dihaloimidazolidin-4-ones” (Auburn Research Foundation, priority 1991, dated 1992).
